Experimental data: ChEMBL document CHEMBL1201862, “PubChem BioAssay data set” (2004)
Active and inactive are the calls of the source.

How the values were obtained:
[1] = biological target: Sphingosine 1-phosphate receptor 2 (Homo sapiens, UniProt O95136); assay: Dose Response Cell Based Assay for Agonists of the S1P2 Receptor of Purchased Analogues. [Related pubchem assays: 729, 843, 854, 736 ]; type: functional
Mucolipin-3 = Mucolipin-3 (Homo sapiens, UniProt Q8TDD5); assay: Dose response cell-based high-throughput screening assay for agonists of the transient receptor potential channel ML3 (TRPML3). [Related pubchem assays: 1526, 1424, 1448 ]; type: functional
Chain of Mucolipin-3 (Q8TDD5 whole entry): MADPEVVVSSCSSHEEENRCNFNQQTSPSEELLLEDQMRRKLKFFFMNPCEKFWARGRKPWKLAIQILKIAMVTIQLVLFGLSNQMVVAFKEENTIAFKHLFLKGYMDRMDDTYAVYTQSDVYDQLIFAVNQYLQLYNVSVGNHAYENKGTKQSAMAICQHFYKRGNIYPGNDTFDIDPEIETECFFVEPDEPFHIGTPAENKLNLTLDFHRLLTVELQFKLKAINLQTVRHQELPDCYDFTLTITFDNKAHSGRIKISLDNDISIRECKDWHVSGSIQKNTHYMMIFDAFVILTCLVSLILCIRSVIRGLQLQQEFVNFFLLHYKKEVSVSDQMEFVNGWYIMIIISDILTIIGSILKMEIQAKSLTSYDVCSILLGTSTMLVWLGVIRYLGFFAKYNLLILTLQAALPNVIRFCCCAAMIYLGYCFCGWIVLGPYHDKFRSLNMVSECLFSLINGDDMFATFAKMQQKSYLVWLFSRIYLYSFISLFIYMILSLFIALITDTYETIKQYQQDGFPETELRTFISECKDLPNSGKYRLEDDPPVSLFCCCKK

Ion channel NompC = Ion channel NompC (Danio rerio, UniProt Q7T1G6); assay: Fluorescence counterscreen assay for TRPML3 agonists: dose response cell-based high-throughput screening assay to identify agonists of the transient receptor potential channel N1 (TRPN1). [Related pubchem assays: 1526, 1424, 1448 ]; type: functional
Chain of Ion channel NompC (Q7T1G6 whole entry): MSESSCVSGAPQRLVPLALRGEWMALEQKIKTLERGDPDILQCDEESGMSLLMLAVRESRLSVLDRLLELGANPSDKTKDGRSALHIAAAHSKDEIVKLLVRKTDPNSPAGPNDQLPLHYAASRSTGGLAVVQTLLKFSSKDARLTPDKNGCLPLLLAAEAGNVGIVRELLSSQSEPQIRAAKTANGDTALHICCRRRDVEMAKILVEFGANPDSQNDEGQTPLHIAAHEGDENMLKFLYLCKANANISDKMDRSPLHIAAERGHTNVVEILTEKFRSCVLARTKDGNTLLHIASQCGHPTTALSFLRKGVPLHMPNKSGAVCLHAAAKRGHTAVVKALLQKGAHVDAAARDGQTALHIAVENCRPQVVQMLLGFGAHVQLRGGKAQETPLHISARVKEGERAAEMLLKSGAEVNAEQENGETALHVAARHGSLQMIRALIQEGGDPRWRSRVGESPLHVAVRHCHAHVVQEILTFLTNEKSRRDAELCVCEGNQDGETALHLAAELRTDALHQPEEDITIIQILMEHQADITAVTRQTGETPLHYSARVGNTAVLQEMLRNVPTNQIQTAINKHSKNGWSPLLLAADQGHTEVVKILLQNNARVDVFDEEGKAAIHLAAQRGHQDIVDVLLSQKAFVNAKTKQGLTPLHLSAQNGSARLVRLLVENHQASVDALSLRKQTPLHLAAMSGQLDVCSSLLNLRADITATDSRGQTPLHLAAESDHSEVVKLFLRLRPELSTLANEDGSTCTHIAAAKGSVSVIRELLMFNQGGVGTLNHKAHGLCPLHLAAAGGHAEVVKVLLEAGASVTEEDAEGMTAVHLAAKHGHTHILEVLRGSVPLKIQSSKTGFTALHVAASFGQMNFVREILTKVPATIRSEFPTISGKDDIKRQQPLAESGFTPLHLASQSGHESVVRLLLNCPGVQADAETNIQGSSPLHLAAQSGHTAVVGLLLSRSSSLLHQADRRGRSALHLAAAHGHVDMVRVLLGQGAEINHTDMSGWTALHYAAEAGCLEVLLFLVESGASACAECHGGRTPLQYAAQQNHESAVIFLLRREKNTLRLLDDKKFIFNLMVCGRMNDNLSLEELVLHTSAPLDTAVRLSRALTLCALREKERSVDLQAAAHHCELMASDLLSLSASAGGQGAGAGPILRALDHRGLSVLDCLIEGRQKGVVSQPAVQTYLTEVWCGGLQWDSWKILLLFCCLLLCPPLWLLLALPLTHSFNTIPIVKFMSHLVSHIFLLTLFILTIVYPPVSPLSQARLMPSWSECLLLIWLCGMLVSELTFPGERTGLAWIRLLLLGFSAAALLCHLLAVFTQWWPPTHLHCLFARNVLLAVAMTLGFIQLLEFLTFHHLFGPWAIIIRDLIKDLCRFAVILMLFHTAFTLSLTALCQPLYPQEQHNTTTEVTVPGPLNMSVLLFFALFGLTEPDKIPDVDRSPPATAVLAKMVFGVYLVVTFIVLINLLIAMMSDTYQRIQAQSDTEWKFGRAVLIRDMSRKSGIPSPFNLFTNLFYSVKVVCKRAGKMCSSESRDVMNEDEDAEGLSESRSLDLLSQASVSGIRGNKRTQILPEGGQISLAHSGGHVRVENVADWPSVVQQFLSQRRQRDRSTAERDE

[2] = Luminescence-based counterscreen assay for KLF5 inhibitors: dose response cell-based high throughput screening assay to identify cytotoxic compounds using the IEC-6 intestinal epithelial cell line. [Related pubchem assays: 1700 (Primary screen.), 1834 (Confirmation screen.), 1858 (Summary AID.), 1905 (Counterscreen.)]; type: functional
Nonstructural protein 1 = Nonstructural protein 1 (Influenza A virus, UniProt Q194T2); type: functional, Influenza A virus (A/California/07/2009(H1N1))
Chain of Nonstructural protein 1 (Q194T2 whole entry): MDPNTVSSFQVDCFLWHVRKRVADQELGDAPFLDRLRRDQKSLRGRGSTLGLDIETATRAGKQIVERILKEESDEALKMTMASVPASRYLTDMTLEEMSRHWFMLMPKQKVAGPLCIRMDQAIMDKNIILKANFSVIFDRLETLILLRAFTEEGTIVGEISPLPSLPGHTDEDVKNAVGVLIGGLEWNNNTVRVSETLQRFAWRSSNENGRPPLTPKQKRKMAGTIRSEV

cells [3] = type: functional, cell-based
[4] = A549 cell cytotoxicity, dose response, cytotoxicity control, plate reader, cherry-pick, antagonist series (AID 743412); type: functional, cell-based
[5] = C. albicans growth with fluconazole, confirmation, fluorescence, retest (AID 2467); type: functional, cell-based
[6] = NIH-3T3 fibroblast cytotoxicity, dose response, cytotoxicity control, cell-based, fluorescence, Alamar Blue, secondary assay (AID 2327); type: functional;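 also: NIH-3T3 mouse fibroblasts cultured with fluconazole at 8 µg/mL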
[7] = HEK293 cell cytotoxicity, dose response, cytotoxicity control, plate reader, cherry-picked samples (AID 743446); type: functional, cell-based
[8] = MC4R antagonists, dose response, counter-screen for LGR2 antagonist project, cell-based, plate reader, cherry pick (AID 743444); type: functional;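 also: transfected HEK 293 cells stimulated with alpha-MSH peptide; potency of inhibitors of the alpha-MSH evoked signal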
[9] = HepG2 cell cytotoxicity, dose response, cytotoxicity control, plate reader, cherry-pick, antagonist series (AID 743416); type: functional, cell-based
[10] = cytotoxicity in MIN6 insulinoma cells, dose response, cytotoxicity control, cell-based, mouse insulinoma (AID 2122); type: functional;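 also: confirmatory high-throughput counterscreen run to flag cytotoxic compounds; mouse MIN-6 beta cells carrying an insulin promoter eGFP reporter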
HEK293 [11] = assay: inhibitors of LMP1-driven NF-kB reporter, dose response, cell-based, HEK293, luciferase, cherry-pick (AID 588343); type: functional; details: Homo sapiens
[12] = LGR2 antagonists, dose response, cell-based, HEK293, CRE-luciferase reporter, cherry pick, set 2 (AID 743343); type: functional;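 also: transfected cells were stimulated with diluted bursicon conditioned medium after compound addition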
[13] = insulin promoter down-regulators in MIN6 cells, imaging, high-content screening, mouse beta cells (AID 1628); type: functional
cells [14] = type: functional, cell-based; remark: listed apart in the source
[15] = biological target: T1, Heat shock factor protein 1 (Mus musculus, UniProt P38532); assay: inhibition of MG132-induced HSE-luciferase signal, confirmation, cell-based, NIH3T3, luminescence, dose retest (AID 2382); type: functional;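 also: NIH3T3 fibroblasts with HSF1-driven luciferase reporter stressed by proteasome inhibitor MG132; luminescence from HSF1-driven luciferase expression after 8 hours of MG132 stress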
T1 sequence (P38532 whole entry): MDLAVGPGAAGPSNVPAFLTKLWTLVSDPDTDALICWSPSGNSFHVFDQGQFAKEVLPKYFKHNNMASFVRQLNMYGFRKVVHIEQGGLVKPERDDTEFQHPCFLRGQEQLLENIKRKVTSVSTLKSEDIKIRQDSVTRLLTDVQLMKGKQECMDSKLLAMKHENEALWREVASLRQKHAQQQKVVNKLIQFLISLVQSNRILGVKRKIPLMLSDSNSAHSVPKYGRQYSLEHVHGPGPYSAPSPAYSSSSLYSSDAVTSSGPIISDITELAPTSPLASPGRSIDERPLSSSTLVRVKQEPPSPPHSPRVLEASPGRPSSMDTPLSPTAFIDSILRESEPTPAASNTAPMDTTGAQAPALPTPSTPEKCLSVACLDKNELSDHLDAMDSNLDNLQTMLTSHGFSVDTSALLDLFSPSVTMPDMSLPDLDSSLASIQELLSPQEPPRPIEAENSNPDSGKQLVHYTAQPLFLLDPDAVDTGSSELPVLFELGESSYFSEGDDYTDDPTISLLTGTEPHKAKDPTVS

[16] = Luminescence Cell-Based Dose Response HTS to Identify Inhibitors of 5'UTR Stem-Loop Driven Prion Protein mRNA Translation in H4 Neuroglioblastoma Cells. [Related pubchem assays: 1827 (Project Summary), 1813 (Primary HTS)]; type: functional
[17] = inhibitors of firefly luciferase expression or activity, dose response, H4 neuroglioma cells, luminescence (AID 1990); type: functional, cell-based
[18] = biological target: Luciferin 4-monooxygenase (Photinus pyralis, UniProt P08659); assay: firefly luciferase enzyme inhibitors, dose response, biochemical, luminescence (AID 1891)
Chain of Luciferin 4-monooxygenase (P08659 whole entry): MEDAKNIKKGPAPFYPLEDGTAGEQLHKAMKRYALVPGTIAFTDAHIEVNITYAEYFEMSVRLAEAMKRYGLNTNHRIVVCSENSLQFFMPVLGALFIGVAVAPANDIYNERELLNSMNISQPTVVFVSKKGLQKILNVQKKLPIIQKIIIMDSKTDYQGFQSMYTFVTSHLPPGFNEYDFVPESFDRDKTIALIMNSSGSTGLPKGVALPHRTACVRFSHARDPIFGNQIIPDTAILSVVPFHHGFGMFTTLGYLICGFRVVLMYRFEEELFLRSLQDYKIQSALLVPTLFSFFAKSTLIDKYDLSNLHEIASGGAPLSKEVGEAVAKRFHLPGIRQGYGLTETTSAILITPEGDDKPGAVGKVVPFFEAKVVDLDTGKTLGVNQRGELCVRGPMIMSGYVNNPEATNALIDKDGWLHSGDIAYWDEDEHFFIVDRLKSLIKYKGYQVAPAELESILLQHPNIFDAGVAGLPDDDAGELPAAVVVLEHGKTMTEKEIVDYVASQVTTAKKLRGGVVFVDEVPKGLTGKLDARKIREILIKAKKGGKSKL

[19] = Luminescence Cell-Based Dose Confirmation HTS to Identify Inhibitors of Platelet Dense Granule Release. [Related pubchem assays: 1663 (Primary HTS), 1678 (Summary of Project)]; type: functional
Paired box protein Pax-8 = Paired box protein Pax-8 (Homo sapiens, UniProt Q06710); assay: inhibitors of PAX8-driven TPO luciferase reporter, dose response, RMG-I cells, cherry-pick (AID 687027); type: functional, cell-based;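 also: luciferase reporter driven by Pax8 target thyroperoxidase promoter measured by SteadyGlo luminescence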
Chain of Paired box protein Pax-8 (Q06710 whole entry): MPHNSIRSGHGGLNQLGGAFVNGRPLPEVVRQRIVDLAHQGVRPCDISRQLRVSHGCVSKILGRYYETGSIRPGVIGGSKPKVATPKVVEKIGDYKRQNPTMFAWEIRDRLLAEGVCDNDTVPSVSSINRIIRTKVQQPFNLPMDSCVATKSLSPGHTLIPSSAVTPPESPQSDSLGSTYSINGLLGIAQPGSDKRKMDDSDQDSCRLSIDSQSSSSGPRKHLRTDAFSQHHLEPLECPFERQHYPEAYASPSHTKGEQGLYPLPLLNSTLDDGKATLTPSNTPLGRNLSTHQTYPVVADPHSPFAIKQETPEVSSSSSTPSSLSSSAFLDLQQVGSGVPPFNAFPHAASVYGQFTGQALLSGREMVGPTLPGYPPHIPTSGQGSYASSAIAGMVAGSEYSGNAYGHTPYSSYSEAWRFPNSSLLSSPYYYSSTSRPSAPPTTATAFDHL

HEK293 [20] = assay: Fluorescence-based counterscreen for potentiators or agonists of NPY-Y2: cell-based high-throughput dose response assay to identify inhibitors of cyclic nucleotide gated ion channel (CNGC) activity. In this assay, the parental HEK293 cell line transfected with a cyclic-nucleotide gated ion channel (CNGC)-based cAMP sensor is used to measure inhibition of isoproterenol-induced CNGC activity by test compound.; type: functional; details: Homo sapiens
[21] = biological target: T2, Neuropeptide Y receptor type 2 (Homo sapiens, UniProt P49146); assay: Fluorescence-based cell-based high-throughput dose response assay for agonists of NPY-Y2. [Related pubchem assays: 1703 (Screening assay (CNGC inhibitors).), 1359 (Screening assay (NPY-Y2 potentiators or agonists).), 1304 (Screening assay (NPY-Y1 potentiators or agonists).), 1710 (Screening assay (NPY-Y2 agonists).), 1791 (Summary AID.)]; type: functional
T2 sequence (P49146 whole entry): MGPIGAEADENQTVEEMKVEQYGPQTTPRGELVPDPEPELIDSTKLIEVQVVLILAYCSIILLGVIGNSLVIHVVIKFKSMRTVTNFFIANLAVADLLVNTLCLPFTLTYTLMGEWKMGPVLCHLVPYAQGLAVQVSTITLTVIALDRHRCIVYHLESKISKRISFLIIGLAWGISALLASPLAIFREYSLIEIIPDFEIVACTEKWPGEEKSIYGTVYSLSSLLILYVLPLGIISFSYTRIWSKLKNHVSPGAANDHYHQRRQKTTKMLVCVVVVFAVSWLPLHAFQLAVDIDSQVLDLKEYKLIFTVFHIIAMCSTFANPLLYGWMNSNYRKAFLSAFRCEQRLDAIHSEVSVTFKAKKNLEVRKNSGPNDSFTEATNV

[22] = biological target: T3, Neuropeptide Y receptor type 1 (Homo sapiens, UniProt P25929); assay: Fluorescence-based counterscreen for agonists of NPY-Y2: cell-based high-throughput dose response assay for agonists of NPY-Y1.; type: functional
T3 sequence (P25929 whole entry): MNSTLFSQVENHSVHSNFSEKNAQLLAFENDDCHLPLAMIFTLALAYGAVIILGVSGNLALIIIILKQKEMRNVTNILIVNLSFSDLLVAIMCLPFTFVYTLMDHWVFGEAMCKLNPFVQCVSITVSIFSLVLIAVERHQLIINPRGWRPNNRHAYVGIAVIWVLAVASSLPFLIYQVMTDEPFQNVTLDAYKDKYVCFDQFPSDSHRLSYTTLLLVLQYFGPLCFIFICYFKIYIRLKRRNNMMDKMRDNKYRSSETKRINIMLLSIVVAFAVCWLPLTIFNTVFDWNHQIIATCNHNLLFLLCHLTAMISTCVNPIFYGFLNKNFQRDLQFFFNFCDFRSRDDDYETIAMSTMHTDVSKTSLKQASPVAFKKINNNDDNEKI

INS1 = assay: beta cell apoptosis inhibitors, cytokine rescue, dose response, luminescence, retest (AID 449756); type: functional, cell-based; details: Rattus norvegicus;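 also: cell death triggered by IL-1 beta plus TNF-alpha plus IFN-gamma mixture; protective hits raise ATP signal compared with cytokine alone wells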
[23] = inhibitors of Bluetongue virus cytopathic effect, confirmation, arbovirus, BSR cells (AID 1250); type: functional;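 also: protection from viral cytopathic effect measured as cell viability by ATP luminescence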

Chain of Sphingosine 1-phosphate receptor 2 (O95136 whole entry): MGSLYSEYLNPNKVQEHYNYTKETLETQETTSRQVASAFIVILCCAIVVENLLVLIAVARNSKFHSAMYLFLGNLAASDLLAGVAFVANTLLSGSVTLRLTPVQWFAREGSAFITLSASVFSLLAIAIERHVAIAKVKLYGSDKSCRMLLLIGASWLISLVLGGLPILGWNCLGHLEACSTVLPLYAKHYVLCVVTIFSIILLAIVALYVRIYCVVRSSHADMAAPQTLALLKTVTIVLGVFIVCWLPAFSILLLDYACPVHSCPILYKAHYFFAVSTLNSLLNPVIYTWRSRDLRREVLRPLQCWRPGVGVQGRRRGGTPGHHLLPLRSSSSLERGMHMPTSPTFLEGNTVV

Which EC50 [1] does the source give for `Cc1cc(C(=O)COC(=O)Cn2cnc3ccccc3c2=O)c(C)n1Cc1ccccc1` here?
The EC50 was > 30 µM (not active).

For `COc1cccc(CN(CC2CCCO2)S(=O)(=O)c2ccc(S(=O)(=O)N(C)C)cc2)c1` (centres undefined), which EC50 (Mucolipin-3) is on record?
The EC50 was > 29.9 µM (not active).

And the EC50 (Ion channel NompC)?
Its EC50 is > 29.9 µM (not active).

With `COc1cccc(/C=N/Nc2nccnc2Cl)c1O` as the compound, how does the IC50 [2] read?
The IC50 was 9.16 µM (active).

And the IC50 (Nonstructural protein 1)?
The IC50 was 7.59 µM (active).

And the EC50 (cells [3])?
The EC50 was > 350 µM (not active).

And the AC50 [4]?
Its AC50 is 4.2 µM (active).

What about the EC50 [5] of the same compound?
Its EC50 is 1.52 µM (active).

And the EC50 [6]?
The EC50 was > 150 µM (inactive).

What about the AC50 [7] of the same compound?
Its AC50 is 6.83 µM (active).

And the AC50 [8]?
The AC50 was 3.39 µM (active).

What about the AC50 [9] of the same compound?
The AC50 was 2.48 µM (active).

What about the IC50 [10] of the same compound?
The IC50 was 3.97 µM (active).

And the AC50 (HEK293 [11])?
Its AC50 is 2.73 µM (active).

What about the AC50 [12] of the same compound?
The AC50 was 3.7 µM (active).

And the IC50 [13]?
The IC50 was 3.57 µM (active).

What about the EC50 (cells [14]) of the same compound?
The EC50 was 6.97 µM (active).

With `CC1CCN(c2ccc(-c3cccs3)nn2)CC1` as the compound, how does the IC50 [2] read?
The IC50 was 37.5 µM (not active).

What about the EC50 [15] of the same compound?
The EC50 was 2.78 µM (active).

What about the AC50 [4] of the same compound?
The AC50 was 29.4 µM (active).

And the EC50 [16]?
Its EC50 is 10.4 µM (active).

And the EC50 [17]?
Its EC50 is 8.6 µM (active).

And the AC50 [7]?
The AC50 was 30.9 µM (active).

And the AC50 [8]?
Its AC50 is 1.43 µM (active).

And the AC50 [12]?
The AC50 was 0.851 µM (active).

For `Cc1cc(C(=O)CN2C(=O)C(=O)N(C)C2=O)c(C)n1Cc1ccccc1`, which EC50 [1] is on record?
Its EC50 is 22.3 µM (not active).

For `O=C(N/N=C/c1ccc(Cl)c([N+](=O)[O-])c1)c1cc(-c2ccc3c4c(cccc24)CC3)[nH]n1`, which EC50 [18] is on record?
Its EC50 is > 112 µM (not active).

And the EC50 [19]?
The EC50 was > 112 µM (not active).

And the AC50 (Paired box protein Pax-8)?
Its AC50 is 3.25 µM (active).

What about the EC50 (HEK293 [20]) of the same compound?
Its EC50 is > 35.4 µM (not active).

And the EC50 [21]?
Its EC50 is > 35.4 µM (not active).

And the EC50 [22]?
Its EC50 is > 35.4 µM (not active).

Which AC50 (INS1) does the source give for `O=C(Nc1nc2ccccc2s1)c1cc(-c2ccccc2)nn1-c1ccccc1` here?
Its AC50 is 3.62 µM (active).

And the IC50 [23]?
The IC50 was 47.4 µM (active).
